Measurements as given in patent EP1675557B1, “COMPOSITION COMPRISING A SESQUITERPENE LACTONE” (Greenpharma, priority 2003, dated 2005).

Experiments:
[1] = test system: PBMCs (lymphocytes et monocytes) ou du sang total; assay: Cell viability test (XTT, mitochondrial dehydrogenase); details: relative to control of activated cells
Description: (§1) Les tests ont été réalisés sur des PBMCs (lymphocytes et monocytes) ou du sang total de donneurs sains humains. Tous les prélèvements ont été réalisés au Service d'Hépato-Gastroentérologie et d'Assistance Nutritive des Hôpitaux Universitaires de Strasbourg (Hôpital de Hautepierre), après approbation du protocole d'étude concernant les effets du célastrol par le CCPPRB n°1 d'Alsace.
(§2) Chez des volontaires sains, 20 ml de sang veineux périphérique sont prélevés le matin à jeun sur héparine. Le sang est ensuite dilué au demi dans de la solution saline équilibrée de Hank's dépourvue en Ca^2+ et en Mg^2+ (HBSS-CMF, Gibco BRL, Cergy, France) additionnée de 100 UI/ml de streptomycine (Biochrom KG, Berlin, Allemagne) et de 100 UI/ml de pénicilline (Biochrom KG). Les PBMCs (lymphocytes et monocytes) sont alors séparées par centrifugation sur Ficoll-Histopaque de densité 1,076 (Sigma, L'Isle d'Abeau-Chesnes, France) (30 min à 400 g) puis, après deux lavages dans du HBSS-CMF additionné d'antibiotiques (10 min à 250 g), resuspendues dans du milieu RPMI 1640 (Gibco BRL) additionné de 10 % (volume/volume) de sérum foetal de veau (SFV) inactivé à la chaleur (56°C, 30 min, Gibco BRL) et d'antibiotiques. Après comptage à la cellule de Malassez, les cellules sont incubées à raison de 2 x 10^5 cellules/puits de 1 ml dans des plaques de 24 puits (Corning Inc., New York, USA) à 37°C dans un incubateur humidifié (air 95 % - CO2 5 %), en présence ou en absence des molécules étudiées préparées dans du DMSO (diméthyl sulfoxyde, Sigma ; maximum : 1 % (v/v) par puit), avec ou sans activation par du lipopolysaccharide de Salmonella abortus equi (LPS, 5 µg/ml) (Sigma) et de la phytohémagglutinine (PHA, 1 µg/ml) (Sigma) ajoutés à T0. Après 24 heures d'incubation, les plaques sont centrifugées (15 min à 200 g), et les surnageants prélevés puis congelés à -80°C jusqu'au dosage.
(§3) La technique est basée sur le clivage par la déshydrogénase mitochondriale d'un sel de tétrazolium de couleur jaune en formazan de couleur orange. Les culots cellulaires (PBMCs et sang total) contenus dans les plaques de culture sont resuspendus dans du RPMI 1640 additionné d'hydroxide 2,3-bis-(2-méthoxy-4-nitro-5-sulfophényl)-5-[(phénylamino)carbonyl]-2H-tétrazolium (XTT, 1 mg/ml, Sigma), et de méthosulfate de phénazine (1,25 mM, Sigma), catalyseur de la réaction. Les plaques sont incubées 4 à 24 heures, puis lues en absorbance à 450 nm (filtre de référence : 620 nm). La viabilité cellulaire est estimée par rapport au témoin de cellules activées.

cellules de type Jurkat = assay: Apoptosis test on Jurkat cells, apoptosis induced by sodium arsenate, quantified by flow cytometry (propidium iodide); type: cell-based, humaine; details: apoptosis induced by 5 µM arséniate de sodium
Description: Les tests apoptotiques ont été réalisés sur des cellules de type Jurkat. La lignée cellulaire Jurkat (Clone E6-1, ATCC TIB 152), dérivée de cellule T humaine de leucémie aiguë, a été décrite dans la littérature (Weiss A. et al, Journal of Immunology, 1984, 133, 123). Les cellules ont été incubées dans un milieu de culture en présence 1 µL d'arséniate de sodium. La concentration finale en arséniate de sodium dans le milieu de culture est de 5 µM. Afin de tester l'inhibition de l'apoptose induite par l'arséniate de sodium, les cellules ont été cultivées soit en absence (témoin) soit en présence de vulgarine 2,6 µM ou d'un de ses dérivés.
L'apoptose a été quantifiée par cytometrie en flux. Les cellules sont rendues perméables et leurs noyaux sont teintés avec de l'iodure de propidium en présence de ribonucléase. Un minimum de 3000 cellules ont été analysées afin de quantifier l'apoptose cellulaire (Hotz M.A. et al, Cytometry, 1994, 15, 237).

in vitro = details: human, pbmcs or whole blood
Description: as §1, §2, §3

Compound | Pourcentage de viabilité cellulaire ([1]; Concentration 0,01 µM, 0.01 µM) [%] | Pourcentage de viabilité cellulaire ([1]; Concentration 0,1 µM, 0.1 µM) [%] | Pourcentage de viabilité cellulaire ([1]; Concentration 1 µM) [%] | Pourcentage de viabilité cellulaire ([1]; Concentration 10 µM) [%] | Pourcentage de viabilité cellulaire ([1]; Concentration 30 µM) [%] | pourcentage d'inhibition de l'apoptose (cellules de type Jurkat; 2,6 µM) [%] | viability at 0.01 µM (in vitro) [%] | viability at 0.1 µM (in vitro) [%] | viability at 1 µM (in vitro) [%] | viability at 10 µM (in vitro) [%] | viability at 30 µM (in vitro) [%] | inhibition at 2.6 µM (cellules de type Jurkat; Homo sapiens, 2,6 µM, read-out: pourcentage d'inhibition de l'apoptose) [%]
4-épivulgarine | 105 | 103 | 99 | 103 | 100 | ~100 |  |  |  |  |  | 
CC1C(=O)OC2C1CCC1(C)C(=O)CCC(C)(O)C21 (centres unmarked) [2,3-dihydrovulgarine] |  |  |  |  |  |  | 110 | 104 | 105 | 108 | 105 | 
CC1C(=O)OC2C1CCC1(C)C(=O)C=CC(C)(O)C21 (centres unmarked) [Vulgarine, vulgarine] |  |  |  |  |  |  | 112 | 102 | 119 | 104 | 102 | ~100
